Measured values as given in patent publication US20250215029A1 (Recludix Pharma, Inc., priority 2022, published 2025).
Read-outs that look alike come from different tables or passages of the source.

Key:
[1] = molecular target: T1, Recombinant STAT3 protein (STAT3 (G127-I722)) (Homo sapiens, UniProt P40763); experiment: STAT3 Fluorescence Polarization (FP) Assay; assay type: binding; conditions: probe 5-FAM-GpYLPQTV-NH2 2 nM, 45-minute incubation
T1 construct: Recombinant STAT3 protein (STAT3 (G127-I722))
T1 sequence (P40763 127-722): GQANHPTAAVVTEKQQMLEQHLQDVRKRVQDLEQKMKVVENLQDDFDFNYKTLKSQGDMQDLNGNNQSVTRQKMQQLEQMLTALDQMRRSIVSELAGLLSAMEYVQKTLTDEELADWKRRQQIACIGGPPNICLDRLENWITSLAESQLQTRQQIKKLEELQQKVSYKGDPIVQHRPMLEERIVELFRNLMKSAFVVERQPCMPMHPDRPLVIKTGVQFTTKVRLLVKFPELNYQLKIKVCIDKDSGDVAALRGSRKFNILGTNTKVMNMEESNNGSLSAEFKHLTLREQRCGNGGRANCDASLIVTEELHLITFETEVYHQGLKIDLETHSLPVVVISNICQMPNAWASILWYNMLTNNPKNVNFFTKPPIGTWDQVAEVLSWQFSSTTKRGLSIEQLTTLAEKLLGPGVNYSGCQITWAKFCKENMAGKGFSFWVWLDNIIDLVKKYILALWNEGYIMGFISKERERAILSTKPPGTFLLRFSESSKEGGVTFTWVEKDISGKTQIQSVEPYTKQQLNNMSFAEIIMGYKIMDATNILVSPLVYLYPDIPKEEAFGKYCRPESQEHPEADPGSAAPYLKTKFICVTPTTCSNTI
Summary of the method: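 Displacement of a 2 nM 5-FAM-labelled pY peptide (GpYLPQTV) from 25 nM recombinant STAT3 (G127-I722) was monitored by fluorescence polarization. Incubation lasted 45 min at room temperature in pH 7.4 HEPES buffer containing 1% DMSO.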

[2] = molecular target: T2, Recombinant STAT6 protein (STAT6 (W123-T658)) (Homo sapiens, UniProt P42226); experiment: STAT6 Fluorescence Polarization (FP) Assay; assay type: binding; conditions: probe 5-FAM-Ap[…]-NH2 2 nM, 45-minute incubation
T2 construct: Recombinant STAT6 protein (STAT6 (W123-T658))
T2 sequence (P42226 123-658): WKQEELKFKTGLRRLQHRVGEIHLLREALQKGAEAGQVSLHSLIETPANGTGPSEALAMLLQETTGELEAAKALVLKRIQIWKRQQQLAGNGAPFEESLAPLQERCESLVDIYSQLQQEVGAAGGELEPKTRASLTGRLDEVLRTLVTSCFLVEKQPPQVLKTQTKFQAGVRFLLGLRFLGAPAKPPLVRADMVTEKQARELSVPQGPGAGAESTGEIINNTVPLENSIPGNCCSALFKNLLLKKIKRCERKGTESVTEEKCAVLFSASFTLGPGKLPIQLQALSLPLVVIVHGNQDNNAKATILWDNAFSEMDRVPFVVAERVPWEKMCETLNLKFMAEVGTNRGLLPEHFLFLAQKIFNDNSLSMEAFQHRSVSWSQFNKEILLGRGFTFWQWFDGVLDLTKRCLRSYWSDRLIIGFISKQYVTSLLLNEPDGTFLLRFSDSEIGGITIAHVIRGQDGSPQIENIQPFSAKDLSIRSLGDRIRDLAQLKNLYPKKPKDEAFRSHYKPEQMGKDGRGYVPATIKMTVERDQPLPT
Summary of the method: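 Fluorescence polarization (mP) read-out: 250 nM STAT6 (W123-T658) plus 2 nM 5-FAM phosphotyrosine peptide, 45 min, room temperature, 1% DMSO. IC50 by nonlinear fit of mP against log compound concentration.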

[3] = STAT3 (G127-I722) 25 nM, read-out: STAT3 (FP assay IC50 class)
[4] = STAT6 (W123-T658) 250 nM, read-out: STAT6 (FP assay IC50 class)
[5] = STAT3 25 nM, read-out: STAT3 (FP assay IC50)
[6] = STAT6 250 nM, read-out: STAT6 (FP assay IC50)

SMILES | IC50 [1, 3] | IC50 [2, 4] | IC50 [1, 5] | IC50 [2, 6]
C/C1=C/C[C@H](NC(=O)c2cc3cc(CP(=O)(O)O)ccc3s2)C(=O)N2[C@H](CC[C@H]2C(=O)N2CC(c3cnccc3C)C2)C1 [Compound 642, ((2-(((3S,6S,10aR,Z)-9-methyl-3-(3-(4-methylpyridin-3-yl)azetidine-1-carbonyl)-5-oxo-1,2,3,5,6,7,10,10a-octahydropyrrolo[1,2-a]azocin-6-yl)carbamoyl)benzo [b]thiophen-5-yl)methyl) phosphonic acid] | 0.1 to 1 µM | 3 to 30 µM | – | –
Cn1ncc(C2CN(C(=O)[C@@H]3CC[C@@H]4CCC[C@H](NC(=O)c5cc6cc(C(F)P(=O)(O)O)ccc6s5)C(=O)N43)C2)c1C#N (stereo partly drawn) [Compound 743, ((2-(((3S,6S,9aS)-3-(3-(5-cyano-1-methyl-1H-pyrazol-4-yl)azetidine-1-carbonyl)-5-oxooctahydro-1H-pyrrolo[1,2-a]azepin-6-yl)carbamoyl)benzo [b]thiophen-5-yl)fluoromethyl) phosphonic acid] | 1 to 10 µM | 3 to 30 µM | – | –
CC[C@H]1CC[C@H](NC(=O)c2cc3cc(C(F)P(=O)(O)O)ccc3s2)C(=O)N2[C@H](CC[C@H]2C(=O)N2CC(c3cnccc3OC)C2)C1 (stereo partly drawn) [Compound 245, ((2-(((3S,6S,9S,10aR)-9-ethyl-3-(3-(4-methoxypyridin-3-yl)azetidine-1-carbonyl)-5-oxodecahydropyrrolo[1,2-a]azocin-6-yl)carbamoyl)benzo[b]thiophen-5-yl)fluoromethyl)phosphonic acid] | < 0.1 µM | 3 to 30 µM | – | –
N#C[C@@H]1[C@@H](c2ccccc2)CN(C(=O)[C@@H]2CC[C@@H]3C[C@@H](N4CCC4)CC[C@H](NC(=O)c4cc5cc([C@H](F)P(=O)(O)O)ccc5s4)C(=O)N32)C12CC2 (single isomer, unassigned) [Compound 934] | 1 to 10 µM | ≤ 0.3 µM | – | –
COc1ccncc1C1CN(C(=O)[C@@H]2CC[C@@H]3CCC[C@H](NC(=O)c4cc5cc([C@@H](F)P(=O)(O)O)ccc5s4)C(=O)N32)C1 (single isomer, unassigned) [Compound 756] | < 0.1 µM | 3 to 30 µM | – | –
C[C@H]1C[C@H]2CC[C@@H](C(=O)N3CC(c4cnccc4N(C)C)C3)N2C(=O)[C@@H](NC(=O)c2cc3cc(CP(=O)(O)O)ccc3s2)C1 [Compound 638, ((2-(((3S,6S,8R,9aR)-3-(3-(4-(dimethylamino)pyridin-3-yl)azetidine-1-carbonyl)-8-methyl-5-oxooctahydro-1H-pyrrolo[1,2-a]azepin-6-yl)carbamoyl)benzo [b]thiophen-5-yl)methyl) phosphonic acid] | < 0.1 µM | 3 to 30 µM | – | –
N#Cc1cccc(C2CN(C(=O)[C@@H]3CC[C@@H]4CCC[C@H](NC(=O)c5cc6cc(C(F)P(=O)(O)O)ccc6s5)C(=O)N43)C2)n1 (some centres unmarked) [Compound 526] | < 0.1 µM | 3 to 30 µM | – | –
N#C[C@H]1[C@H](c2ccccc2)CN(C(=O)[C@@H]2CC[C@@H]3C[C@@H](N4CCC4)CC[C@H](NC(=O)c4cc5cc([C@H](F)P(=O)(O)O)ccc5s4)C(=O)N32)C12CC2 (single isomer, unassigned) [Compound 936] | 1 to 10 µM | ≤ 0.3 µM | – | –
CNc1ccncc1C1CN(C(=O)[C@@H]2CC[C@@H]3CCC[C@H](NC(=O)c4cc5cc(CP(=O)(O)O)ccc5s4)C(=O)N32)C1 [Compound 606, ((2-(((3S,6S,9aS)-3-(3-(4-(methylamino)pyridin-3-yl)azetidine-1-carbonyl)-5-oxooctahydro-1H-pyrrolo[1,2-a]azepin-6-yl)carbamoyl)benzo [b]thiophen-5-yl)methyl) phosphonic acid] | < 0.1 µM | 3 to 30 µM | – | –

Results, then the compound that gave them:

IC50 [1, 3] | IC50 [2, 4] | IC50 [1, 5] | IC50 [2, 6] | SMILES
1 to 10 µM | 3 to 30 µM | – | – | COCC(NC(=O)[C@@H]1CC[C@@H]2CCCC[C@H](NC(=O)c3cc4cc(C(F)(F)P(=O)(O)O)ccc4s3)C(=O)N21)c1c[nH]c2ncccc12 (stereo partly drawn) [Compound 1121, (difluoro(2-(((3S,6S,10aS)-3-((2-methoxy-1-(1H-pyrrolo[2,3-b]pyridin-3-yl)ethyl)carbamoyl)-5-oxodecahydropyrrolo[1,2-a]azocin-6-yl)carbamoyl)benzo[b]thiophen-5-yl)methyl)phosphonic acid]
0.1 to 1 µM | 0.3 to 3 µM | – | – | CC(c1cc[nH]c(=O)c1)N(C)C(=O)[C@@H]1CC[C@@H]2CCCC[C@H](NC(=O)c3cc4cc(C(F)(F)P(=O)(O)O)ccc4s3)C(=O)N21 (stereo partly drawn) [Compound 791, (difluoro(2-(((3S,6S,10aS)-3-(methyl(1-(2-oxo-1,2-dihydropyridin-4-yl)ethyl)carbamoyl)-5-oxodecahydropyrrolo [1,2-a]azocin-6-yl)carbamoyl)benzo [b]thiophen-5-yl)methyl) phosphonic acid]
– | – | < 0.1 µM | 3 to 30 µM | O=C(N[C@H]1CC2(CC[C@H]3CC[C@@H](C(=O)N4CC(C(=O)N5CCOCC5)C4)N3C1=O)CC2)c1cc2cc(C(F)(F)P(=O)(O)O)ccc2s1 [Compound 115, (difluoro(2-(((3′S,6′S, 10a′S)-3′-(3-(morpholine-4-carbonyl)azetidine-1-carbonyl)-5′-oxooctahydro-5′H-spiro [cyclopropane-1,8′-pyrrolo[1,2-a]azocin]-6′-yl)carbamoyl)benzo[b]thiophen-5-yl)methyl) phosphonic acid]
1 to 10 µM | ≤ 0.3 µM | – | – | O=C(N[C@H]1CCCC[C@H]2CC[C@@H](C(=O)N3CC(c4cccnc4)CC34CC4)N2C1=O)c1ccc2ccc(C(F)P(=O)(O)O)cc2c1 (stereo partly drawn) [Compound 891, (fluoro(7-(((3S,6S,10aS)-5-oxo-3-(6-(pyridin-3-yl)-4-azaspiro[2.4]heptane-4-carbonyl)decahydropyrrolo[1,2-a]azocin-6-yl)carbamoyl)naphthalen-2-yl)methyl) phosphonic acid]
– | – | 0.1 to 1 µM | ≤ 0.3 µM | N#C[C@@H]1CN(C(=O)[C@@H]2CC[C@@H]3CCCC[C@H](NC(=O)c4cc5cc(C(F)(F)P(=O)(O)O)ccc5s4)C(=O)N32)C[C@H]1c1cc[nH]c(=O)c1 (relative stereo) [Compound 86, ((2-(((3S,6S,10aS)-3-(rel-(trans)-3-cyano-4-(2-oxo-1,2-dihydropyridin-4-yl)pyrrolidine-1-carbonyl)-5-oxodecahydropyrrolo [1,2-a]azocin-6-yl)carbamoyl)benzo[b]thiophen-5-yl)difluoromethyl) phosphonic acid]
1 to 10 µM | 0.3 to 3 µM | – | – | C[C@H]1CC[C@H](NC(=O)c2ccc3ccc(CP(=O)(O)O)cc3c2)C(=O)N2[C@H](CC[C@H]2C(=O)N2CC(c3ccccc3)CC23CC3)C1 (stereo partly drawn) [Compound 888, ((7-(((3S,6S,9S,10aR)-9-methyl-5-oxo-3-(6-phenyl-4-azaspiro[2.4]heptane-4-carbonyl)decahydropyrrolo[1,2-a]azocin-6-yl)carbamoyl)naphthalen-2-yl)methyl) phosphonic acid]
– | – | 1 to 10 µM | ≤ 0.3 µM | N#C[C@@H]1CN(C(=O)[C@@H]2CC[C@@H]3CCCC[C@H](NC(=O)c4cc5cc([C@H](F)P(=O)(O)O)ccc5s4)C(=O)N32)C[C@H]1c1ccccc1 (single isomer, unassigned) [Compound 18, ((2-(((3S,6S,10aS)-3-((3S,4R or 3R,4S)-3-cyano-4-phenylpyrrolidine-1-carbonyl)-5-oxodecahydropyrrolo [1,2-a]azocin-6-yl)carbamoyl)benzo[b]thiophen-5-yl)fluoromethyl) phosphonic acid]
– | – | 1 to 10 µM | 0.3 to 3 µM | CN(C(=O)[C@@H]1CC[C@@H]2CCC[C@H](NC(=O)c3cc4cc(C(F)(F)P(=O)(O)O)ccc4s3)C(=O)N21)c1ccccc1 [Compound 111, (Difluoro(2-(((3S,6S,9aS)-3-(methyl(phenyl)carbamoyl)-5-oxooctahydro-1H-pyrrolo[1,2-a]azepin-6-yl)carbamoyl)benzo[b]thiophen-5-yl)methyl)phosphonic acid]
< 0.1 µM | 3 to 30 µM | – | – | O=C(N[C@H]1CCC[C@H]2CC[C@@H](C(=O)N3CC(c4nccc(O)n4)C3)N2C1=O)c1cc2cc(C(F)(F)P(=O)(O)O)ccc2s1 [Compound 809, (difluoro(2-(((3S,6S,9aS)-3-(3-(4-hydroxypyrimidin-2-yl)azetidine-1-carbonyl)-5-oxooctahydro-1H-pyrrolo[1,2-a]azepin-6-yl)carbamoyl)benzo [b]thiophen-5-yl)methyl) phosphonic acid]
– | – | 1 to 10 µM | 0.3 to 3 µM | CN(C(=O)[C@@H]1CC[C@@H]2C/C=C\C[C@H](NC(=O)c3cc4cc(C(F)(F)P(=O)(O)O)ccc4[nH]3)C(=O)N21)c1ccccc1 [Compound 30]
